According to paper PMC6359144 (International Journal of Molecular Sciences, 2019):
Like-named read-outs stand apart in the source and are kept apart here.

Legend:
[1] = test system: HT-29 colon carcinoma cells; assay: MTT assay, HT-29 colon carcinoma cells; format: cell-based, human; conditions: Homo sapiens, MTT
Description: (§1) HT-29 (ACC-299), HCT-116 (ACC-581) and DLD-1 (ACC-278) colon carcinoma, MCF-7 (ACC-115) breast carcinoma, KB-V1 (ACC-149), 518A2 (Department of Radiotherapy and Radiobiology, University Hospital Vienna) melanoma and Ea.Hy926 (ATCC no. CRL-2922) HUVEC derived endothelial hybrid cells line were grown in Dulbecco’s Modified Eagle Medium (DMEM; Biochrom), high glucose supplemented with 10% (v/v) fetal bovine serum (FBS; Biochrom.) and 1% (v/v) Antibiotic-Antimycotic solution (anti-anti; Thermo Scientific). HDFa human dermal fibroblasts (ATCC: PCS-201-012™) were grown in DMEM supplemented with 10% FBS, 1% anti-anti and 2 mM glutamine. The cells were incubated at 37 °C, 5% CO2, 95% humidified atmosphere. By repeated addition of topotecan or vinblastine at the maximum tolerated dose to the cell medium of MCF-7 and KB-V1 cells, the cells were rendered multidrug-resistant, indicated as MCF-7^Topo and KB-V1^Vbl, respectively. They were serially passaged following trypsinization by using 0.05% trypsin/0.02% EDTA (Biochrom). Mycoplasma contamination was routinely monitored, and only mycoplasma–free cultures were used.
(§2) MTT [3-(4,5-dimethylthiazol-2-yl)-2,5-diphenyltetrazolium bromide] (ABCR) was used to determine the cytotoxicity of test compounds as previously described. Briefly, HDFa human dermal fibroblasts and Ea.Hy926 endothelial hybrid cells (both 1 × 10^5 cells/mL, 100 µL/well), 518A2 melanoma, KB-V1^Vbl cervix carcinoma, MCF-7^Topo breast carcinoma, HT-29, DLD-1 and HCT-116 colon carcinoma (all 5 × 10^4 cells/mL, 100 µL/well) were grown in 96-well culture plates for 24 h. Then, various concentrations of the test compounds were added and the cells were incubated for 24-72 h at 37 °C. After adding 12.5 µL of a 0.5% MTT solution in PBS (final concentration 0.05%) to cell medium, microplates were incubated for 2 h and subsequently swiftly turned to discard the medium. The precipitate of formazan crystals was then dissolved in a 10% solution of SDS in DMSO containing 0.6% acetic acid. To ensure complete dissolution of formazan, microplates were incubated for at least 4 h at 37 °C. Finally, the absorbance at λ = 570 nm (formazan) and 630 nm (background) was measured using a microplate reader (Tecan F200). All experiments were carried out in quadruplicate and the percentage of viable cells was calculated as the mean ± SD with controls set to 100%. Selected graphs of MTT assays can be found in the Supporting Information (Figure S8).

[2] = test system: HCT-116 colon carcinoma cells; assay: MTT assay, HCT-116 colon carcinoma cells; format: cell-based; conditions: Homo sapiens, HCT-116, read-out: IC50 HCT-116 (72 h)
Description: as §1, §2

[3] = test system: MCF-7^Topo breast adenocarcinoma cells; assay: MTT assay, MCF-7^Topo breast carcinoma cells; format: cell-based; conditions: Homo sapiens, MCF7/Topo, read-out: IC50 MCF-7^Topo (72 h)
Description: as §1, §2

[4] = test system: microtubule cytoskeleton in 518A2 melanoma cells; assay: Immunofluorescence staining of microtubule cytoskeleton, 518A2 cells; format: cell-based, human; conditions: 24 h
Description: 518A2 melanoma cells (5 × 10^4 cells/mL, 500 µL/well) or Ea.Hy926 endothelial hybrid cells (7.5 × 10^4 cells/mL, 500 µL/well) were seeded in 24-well plates on small glass coverslips and grown for 24 h. Then, the cells were exposed to the test compounds for 24 h. After washing the cells once with PBS, they were fixed in 3.7% formaldehyde in PBS (20 min, rt), and permeabilized and blocked in 1% BSA and 0.1% triton X-100 in PBS (30 min, rt). Then, the cells were incubated with monoclonal mouse anti-alpha-tubulin antibody (1 h, 37 °C). […] Then, the cells were washed for three times with PBS and once with water. The glass coverslips were mounted in 4-88 based mounting medium supplemented with 1 µg/mL DAPI for counterstaining the nuclei and 2.5% DABCO. Alterations of the microtubule were documented by a Zeiss Imager A1 AX10 fluorescence microscope (400× magnification).

recombinant human HDAC1 = target: T1, recombinant human HDAC1 (Homo sapiens, UniProt Q13547); assay: HDAC1 inhibitor screening assay (fluorometric); format: biochemical; conditions: recombinant human HDAC1, mean ± SD of two experiments; read-out: HDAC inhibition IC50, HDAC1
T1 construct: purchased Cayman Chemicals
T1 sequence (Q13547 whole entry): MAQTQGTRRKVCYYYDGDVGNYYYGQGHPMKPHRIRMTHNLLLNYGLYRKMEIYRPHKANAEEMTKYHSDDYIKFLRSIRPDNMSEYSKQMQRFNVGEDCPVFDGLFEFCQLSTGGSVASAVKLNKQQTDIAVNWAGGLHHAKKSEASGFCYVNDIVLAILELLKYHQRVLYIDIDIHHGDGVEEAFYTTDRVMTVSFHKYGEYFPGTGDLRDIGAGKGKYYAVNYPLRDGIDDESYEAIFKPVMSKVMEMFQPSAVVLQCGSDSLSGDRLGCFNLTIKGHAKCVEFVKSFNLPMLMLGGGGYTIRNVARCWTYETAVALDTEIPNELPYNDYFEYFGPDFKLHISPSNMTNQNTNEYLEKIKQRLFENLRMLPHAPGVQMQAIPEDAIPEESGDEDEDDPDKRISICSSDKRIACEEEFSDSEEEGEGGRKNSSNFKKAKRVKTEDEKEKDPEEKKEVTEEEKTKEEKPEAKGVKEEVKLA
Description: The HDAC inhibitory potential of the novel compounds was determined by utilizing the deacetylase activity of recombinant human HDAC1 (HDAC1 Inhibitor Screening Assay Kit; Cayman Chemicals) or HDAC6 (HDAC6 Inhibitor Screening Kit (Fluorometric); Biovision) towards the corresponding synthetic acetylated-peptide substrates resulting in the release of a fluorescent product. The assays were performed according to manufacturer’s description of the in commercially available assay kits. […] The IC50 values were derived from dose-response curves and are expressed as the means ± SD of two independent experiments.

518A2 melanoma cells = assay: Cell cycle analysis by flow cytometry after PI staining; format: cell-based, human; conditions: 24 h; for cell cycle arresting effect: 518A2 cells, FACS
Description: The 518A2 melanoma cells (3 mL/well; 5 × 10^4 cells/mL) were grown on 6-well tissue culture plates for 24 h. After treatment with 4d (150, and 200 nM), 4e (0.8, and 1 µM), 4f (2, and 3 µM), or DMSO (control) for another 24 h, cells were fixed (70% EtOH, 24 h, 4 °C), washed with PBS and incubated with propidium iodide (PI; Carl Roth) staining solution (50 µg/mL PI, 0.1% sodium citrate, 50 µg/mL RNase A in PBS) for 30 min at 37 °C. […] The percentages of cells in the different phases of the cell cycle (G1, S and G2/M phase) were determined using the CXP Analysis software (Beckmann Coulter). The percentage of apoptotic cells was derived from sub-G1 peaks. Data was normally distributed for each group (Shapiro–Wilk test, p > 0.05). Since homogeneity of variance (Levene’s test, p < 0.05) was violated, a correction was calculated for Anova (Welch test).

[5] = HT-29, read-out: IC50 HT-29 (72 h), 72 h
[6] = HT-29, 24 h, read-out: IC50 HT-29 (24 h)

Structure (SMILES): COc1ccc(-c2ocnc2-c2cc(Br)c(OC)c(OC)c2)cc1OCCCCC(=O)NO [4e, N-Hydroxy-5-[1-methoxy-4-(4’-(3’’-bromo-4’’,5’’-dimethoxyphenyl)oxazol-5’-yl)-2-phenoxy]pentanamide]
- IC50 [1, 5]: 1900 ± 200 nM
- IC50 [1, 6]: 2100 ± 600 nM
- IC50 [2]: 2200 ± 300 nM
- IC50 [3]: 3400 ± 200 nM
- effect on microtubule cytoskeleton ([4]; […]): eroded the highly organized microtubule network, but left some intact clusters
- IC50 (recombinant human HDAC1): 3800 ± 100 nM
- cells in G1 (518A2 melanoma cells; 0.8 µM): 43.1 ± 1.3%
- cells in G2/M (518A2 melanoma cells; 0.8 µM): 32.6 ± 1.7%
- cells in S (518A2 melanoma cells; 0.8 µM): 19.2 ± 0.7%
- cells in Sub-G1 (518A2 melanoma cells; 0.8 µM): 5.1 ± 1.2%
- cells in G1 (518A2 melanoma cells; 1 µM): 35.4 ± 1.1%
- cells in G2/M (518A2 melanoma cells; 1 µM): 34.9 ± 3.5%
- cells in S (518A2 melanoma cells; 1 µM): 19.0 ± 0.3%
- cells in Sub-G1 (518A2 melanoma cells; 1 µM): 10.8 ± 4.4%
- cell cycle arresting effect (518A2 melanoma cells): accumulation of 518A2 cells in G2/M phase

Structure (SMILES): COc1ccc(-c2ocnc2-c2cc(Br)c(OC)c(OC)c2)cc1OCCCC(=O)NO [4d, N-Hydroxy-4-[1-methoxy-4-(4’-(3’’-bromo-4’’,5’’-dimethoxyphenyl)oxazol-5’-yl)-2-phenoxy]butanamide]
- IC50 [1, 5]: 1400 ± 200 nM
- IC50 [1, 6]: 1300 ± 300 nM
- IC50 [2]: 130 ± 10 nM
- IC50 [3]: 2800 ± 300 nM
- effect on microtubule cytoskeleton ([4]; 0.5 µM): complete disruption of the microtubule cytoskeleton
- IC50 (recombinant human HDAC1): 4000 ± 100 nM
- cells in G1 (518A2 melanoma cells; 0.2 µM): 33.9 ± 3.4%
- cells in G2/M (518A2 melanoma cells; 0.2 µM): 35.4 ± 2.4%
- cells in S (518A2 melanoma cells; 0.2 µM): 16.3 ± 1.1%
- cells in Sub-G1 (518A2 melanoma cells; 0.2 µM): 14.4 ± 2.8%
- cell cycle arresting effect (518A2 melanoma cells): accumulation of 518A2 cells in G2/M phase

Structure (SMILES): COc1ccc(-c2ocnc2-c2cc(Br)c(OC)c(OC)c2)cc1OCCCCCC(=O)NO [4f, N-Hydroxy-6-[1-methoxy-4-(4’-(3’’-bromo-4’’,5’’-dimethoxyphenyl)oxazol-5’-yl)-2-phenoxy]hexanamide]
- IC50 [1, 5]: 14200 ± 1600 nM
- IC50 [1, 6]: 6600 ± 600 nM
- IC50 [2]: 6300 ± 400 nM
- IC50 [3]: 8300 ± 700 nM
- effect on microtubule cytoskeleton ([4]; 4 µM): did not affect the microtubule cytoskeleton
- IC50 (recombinant human HDAC1): 490 ± 50 nM
- cells in G1 (518A2 melanoma cells; 2 µM): 53.9 ± 0.8%
- cells in G2/M (518A2 melanoma cells; 2 µM): 22.2 ± 0.5%
- cells in S (518A2 melanoma cells; 2 µM): 18.3 ± 0.7%
- cells in Sub-G1 (518A2 melanoma cells; 2 µM): 5.6 ± 0.8%
- cells in G1 (518A2 melanoma cells; 3 µM): 54.2 ± 0.5%
- cells in G2/M (518A2 melanoma cells; 3 µM): 22.5 ± 0.3%
- cells in S (518A2 melanoma cells; 3 µM): 16.9 ± 0.6%
- cells in Sub-G1 (518A2 melanoma cells; 3 µM): 6.3 ± 0.9%
- cell cycle arresting effect (518A2 melanoma cells): induced a G1 phase arrest
